Read-outs that look alike come from different tables or passages of the source. Each block holds one compound with its values, some of them ahead of it.
Experiments:
PKCa = PKCa (Homo sapiens (Human), UniProt P17252); experiment: Reaction Biology HotSpot kinase assay; assay type: biochemical; details: 500 nM compound; for inhibition at 0.5 µM: read-out: Percentage kinase inhibition PKCa
Summary of the method: (§1)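 Phosphotransfer from [γ-33P]ATP was quantified after filter binding on P81 paper. Conditions: 20 mM HEPES pH 7.5, 10 mM MgCl2, 0.1 mM Na3VO4, 2 mM DTT, 0.02 mg/mL BSA; ATP 100 μM final; 2 h at room temperature. Compound was dosed at 500 nM.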

FLT1/VEGFR1 = FLT1/VEGFR1 (Homo sapiens (Human), UniProt P17948); experiment: Reaction Biology HotSpot kinase assay; assay type: biochemical; details: 500 nM compound; for inhibition at 0.5 µM: read-out: Percentage kinase inhibition FLT1/VEGFR1
Summary of the method: as §1

FGFR1 = FGFR1 (Homo sapiens (Human), UniProt P11362); experiment: Reaction Biology HotSpot kinase assay; assay type: biochemical; details: 500 nM compound; for inhibition at 0.5 µM: read-out: Percentage kinase inhibition FGFR1
FGFR1, sequence (P11362 22-822): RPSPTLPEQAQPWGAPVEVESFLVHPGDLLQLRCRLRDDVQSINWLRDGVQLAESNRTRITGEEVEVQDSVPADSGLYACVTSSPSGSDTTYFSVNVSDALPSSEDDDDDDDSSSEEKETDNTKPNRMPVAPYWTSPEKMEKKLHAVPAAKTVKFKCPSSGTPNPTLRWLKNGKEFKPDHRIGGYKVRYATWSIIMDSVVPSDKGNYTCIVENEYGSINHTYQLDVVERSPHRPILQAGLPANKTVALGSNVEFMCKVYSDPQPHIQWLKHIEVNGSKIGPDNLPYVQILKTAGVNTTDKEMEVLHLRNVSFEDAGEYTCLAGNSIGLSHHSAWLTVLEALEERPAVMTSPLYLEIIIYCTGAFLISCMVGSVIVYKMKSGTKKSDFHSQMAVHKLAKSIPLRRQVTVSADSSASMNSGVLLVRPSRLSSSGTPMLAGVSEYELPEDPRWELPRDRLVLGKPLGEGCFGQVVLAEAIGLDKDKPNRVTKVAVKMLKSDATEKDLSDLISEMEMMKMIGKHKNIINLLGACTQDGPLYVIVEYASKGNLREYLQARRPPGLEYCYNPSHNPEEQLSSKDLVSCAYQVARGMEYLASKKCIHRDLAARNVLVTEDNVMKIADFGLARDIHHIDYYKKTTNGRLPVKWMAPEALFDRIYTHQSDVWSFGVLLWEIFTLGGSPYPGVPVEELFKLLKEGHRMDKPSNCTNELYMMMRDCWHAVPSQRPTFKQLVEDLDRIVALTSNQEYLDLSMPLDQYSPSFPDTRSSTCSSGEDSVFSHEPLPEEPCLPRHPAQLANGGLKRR
Summary of the method: (§2)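 HotSpot 33P transfer format. Enzyme, substrate and 500 nM test compound sit together for 20 min, then labelled and unlabelled ATP totalling 100 μM are added and phosphorylation proceeds for 2 h at room temperature. Products are captured on P81 cellulose paper, and activity is expressed relative to DMSO.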

BRAF = BRAF (Homo sapiens (Human), UniProt P15056); experiment: Reaction Biology HotSpot kinase assay; assay type: biochemical; details: 500 nM compound; for inhibition at 0.5 µM: read-out: Percentage kinase inhibition BRAF
BRAF, sequence (P15056 whole entry): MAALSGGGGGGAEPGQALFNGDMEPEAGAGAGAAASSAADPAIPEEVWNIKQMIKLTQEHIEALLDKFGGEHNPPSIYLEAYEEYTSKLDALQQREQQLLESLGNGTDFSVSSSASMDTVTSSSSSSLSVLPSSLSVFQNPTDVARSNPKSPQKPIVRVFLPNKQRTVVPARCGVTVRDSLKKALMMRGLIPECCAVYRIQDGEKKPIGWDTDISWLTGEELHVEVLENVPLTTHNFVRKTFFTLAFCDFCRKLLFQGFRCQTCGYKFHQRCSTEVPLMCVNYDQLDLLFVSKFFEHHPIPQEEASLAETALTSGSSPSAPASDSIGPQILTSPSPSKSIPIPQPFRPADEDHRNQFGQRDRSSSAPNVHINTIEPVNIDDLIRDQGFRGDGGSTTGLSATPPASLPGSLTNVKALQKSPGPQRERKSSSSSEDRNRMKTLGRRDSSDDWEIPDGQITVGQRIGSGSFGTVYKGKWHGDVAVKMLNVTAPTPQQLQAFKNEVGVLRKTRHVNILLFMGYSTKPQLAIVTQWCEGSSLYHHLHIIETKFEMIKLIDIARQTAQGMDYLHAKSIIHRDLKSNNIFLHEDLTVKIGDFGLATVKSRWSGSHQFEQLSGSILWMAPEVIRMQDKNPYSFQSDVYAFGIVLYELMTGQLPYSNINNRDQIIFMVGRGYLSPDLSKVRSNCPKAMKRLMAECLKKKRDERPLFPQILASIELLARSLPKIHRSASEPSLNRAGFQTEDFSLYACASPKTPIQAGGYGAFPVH
Summary of the method: as §1

AXL = AXL (Homo sapiens (Human), UniProt P30530); experiment: Reaction Biology HotSpot kinase assay; assay type: biochemical; details: 500 nM compound; for inhibition at 0.5 µM: read-out: Percentage kinase inhibition AXL
Summary of the method: as §1

FLT4/VEGFR3 = FLT4/VEGFR3 (Homo sapiens (Human), UniProt P35916); experiment: Reaction Biology HotSpot kinase assay; assay type: biochemical; details: 500 nM compound; for inhibition at 0.5 µM: read-out: Percentage kinase inhibition FLT4/VEGFR3
Summary of the method: as §1

YES/YES1 = YES/YES1 (Homo sapiens (Human), UniProt P07947); experiment: Reaction Biology HotSpot kinase assay; assay type: biochemical; details: 500 nM compound; for inhibition at 0.5 µM: read-out: Percentage kinase inhibition YES/YES1
Summary of the method: as §1

BTK = BTK (Homo sapiens (Human), UniProt Q06187); experiment: Reaction Biology HotSpot kinase assay; assay type: biochemical; details: 500 nM compound; for inhibition at 0.5 µM: read-out: Percentage kinase inhibition BTK
Summary of the method: as §1

KDR/VEGFR2 = KDR/VEGFR2 (Homo sapiens (Human), UniProt P35968); experiment: Reaction Biology HotSpot kinase assay; assay type: biochemical; details: 500 nM compound; for inhibition at 0.5 µM: read-out: Percentage kinase inhibition KDR/VEGFR2
Summary of the method: as §1

EPHB2 = EPHB2 (Homo sapiens (Human), UniProt P29323); experiment: Reaction Biology HotSpot kinase assay; assay type: biochemical; details: 500 nM compound; for inhibition at 0.5 µM: read-out: Percentage kinase inhibition EPHB2
EPHB2, sequence (P29323 19-1055): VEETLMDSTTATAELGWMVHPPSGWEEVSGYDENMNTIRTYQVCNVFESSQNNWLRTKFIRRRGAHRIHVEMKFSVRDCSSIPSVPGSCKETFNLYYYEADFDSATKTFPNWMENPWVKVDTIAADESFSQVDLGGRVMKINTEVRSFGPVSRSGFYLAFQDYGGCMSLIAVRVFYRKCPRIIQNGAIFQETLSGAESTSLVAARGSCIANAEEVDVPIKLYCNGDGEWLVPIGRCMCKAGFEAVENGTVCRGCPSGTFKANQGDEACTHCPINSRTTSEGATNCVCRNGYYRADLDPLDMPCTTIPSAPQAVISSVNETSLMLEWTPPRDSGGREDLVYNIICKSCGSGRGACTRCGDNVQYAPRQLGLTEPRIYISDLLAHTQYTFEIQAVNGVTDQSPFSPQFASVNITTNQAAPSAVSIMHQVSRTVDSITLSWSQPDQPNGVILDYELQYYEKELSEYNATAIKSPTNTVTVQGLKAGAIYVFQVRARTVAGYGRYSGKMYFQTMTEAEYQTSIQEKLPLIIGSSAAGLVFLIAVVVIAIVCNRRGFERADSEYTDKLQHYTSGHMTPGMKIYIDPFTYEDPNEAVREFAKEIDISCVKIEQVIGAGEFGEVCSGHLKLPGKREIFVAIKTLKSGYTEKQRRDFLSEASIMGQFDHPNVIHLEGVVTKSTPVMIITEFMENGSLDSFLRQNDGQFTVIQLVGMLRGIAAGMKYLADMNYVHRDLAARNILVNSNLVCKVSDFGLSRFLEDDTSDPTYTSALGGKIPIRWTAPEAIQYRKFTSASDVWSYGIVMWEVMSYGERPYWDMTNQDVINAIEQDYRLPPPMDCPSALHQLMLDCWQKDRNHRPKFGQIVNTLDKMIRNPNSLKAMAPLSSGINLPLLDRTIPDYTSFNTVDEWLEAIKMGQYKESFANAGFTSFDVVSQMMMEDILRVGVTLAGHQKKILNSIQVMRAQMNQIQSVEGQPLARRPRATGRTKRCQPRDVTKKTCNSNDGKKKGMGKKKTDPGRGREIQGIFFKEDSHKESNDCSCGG
Summary of the method: as §1

PDGFRa = PDGFRa (Homo sapiens (Human), UniProt P16234); experiment: Reaction Biology HotSpot kinase assay; assay type: biochemical; details: 500 nM compound; for inhibition at 0.5 µM: read-out: Percentage kinase inhibition PDGFRa
Summary of the method: as §1

ROS/ROS1 = ROS/ROS1 (Homo sapiens (Human), UniProt P08922); experiment: Reaction Biology HotSpot kinase assay; assay type: biochemical; details: 500 nM compound; for inhibition at 0.5 µM: read-out: Percentage kinase inhibition ROS/ROS1
Summary of the method: as §1

c-MER = c-MER (Homo sapiens (Human), UniProt Q12866); experiment: Reaction Biology HotSpot kinase assay; assay type: biochemical; details: 500 nM compound; for inhibition at 0.5 µM: read-out: Percentage kinase inhibition c-MER
Summary of the method: as §1

AKT1 = AKT1 (Homo sapiens (Human), UniProt P31749); experiment: Reaction Biology HotSpot kinase assay; assay type: biochemical; details: 500 nM compound; for inhibition at 0.5 µM: read-out: Percentage kinase inhibition AKT1
AKT1, sequence (P31749 whole entry): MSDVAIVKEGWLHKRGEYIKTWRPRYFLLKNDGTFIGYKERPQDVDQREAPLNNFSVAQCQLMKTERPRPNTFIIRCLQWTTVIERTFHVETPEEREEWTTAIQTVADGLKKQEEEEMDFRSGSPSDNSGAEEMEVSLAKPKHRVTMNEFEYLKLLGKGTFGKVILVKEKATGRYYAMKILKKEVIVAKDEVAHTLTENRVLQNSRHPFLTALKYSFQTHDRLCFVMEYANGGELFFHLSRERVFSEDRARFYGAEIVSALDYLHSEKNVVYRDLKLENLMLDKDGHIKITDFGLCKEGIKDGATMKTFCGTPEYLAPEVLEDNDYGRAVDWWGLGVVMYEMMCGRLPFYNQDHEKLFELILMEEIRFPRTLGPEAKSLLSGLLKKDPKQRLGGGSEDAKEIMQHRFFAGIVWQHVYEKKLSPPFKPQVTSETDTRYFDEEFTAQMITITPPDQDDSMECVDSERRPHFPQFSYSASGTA
Summary of the method: as §2

FLT3 = FLT3 (Homo sapiens (Human), UniProt P36888); experiment: Reaction Biology HotSpot kinase assay; assay type: biochemical; details: for inhibition at 0.5 µM: read-out: % inhibition of FLT3 activity
Summary of the method: as §2

EPHA5 = EPHA5 (Homo sapiens (Human), UniProt P54756); experiment: Reaction Biology HotSpot kinase assay; assay type: biochemical; details: 500 nM compound; for inhibition at 0.5 µM: read-out: Percentage kinase inhibition EPHA5
Summary of the method: as §1

ERBB2/HER2 = ERBB2/HER2 (Homo sapiens (Human), UniProt P04626); experiment: Reaction Biology HotSpot kinase assay; assay type: biochemical; details: 500 nM compound; for inhibition at 0.5 µM: read-out: Percentage kinase inhibition ERBB2/HER2
ERBB2/HER2, sequence (P04626 23-1255): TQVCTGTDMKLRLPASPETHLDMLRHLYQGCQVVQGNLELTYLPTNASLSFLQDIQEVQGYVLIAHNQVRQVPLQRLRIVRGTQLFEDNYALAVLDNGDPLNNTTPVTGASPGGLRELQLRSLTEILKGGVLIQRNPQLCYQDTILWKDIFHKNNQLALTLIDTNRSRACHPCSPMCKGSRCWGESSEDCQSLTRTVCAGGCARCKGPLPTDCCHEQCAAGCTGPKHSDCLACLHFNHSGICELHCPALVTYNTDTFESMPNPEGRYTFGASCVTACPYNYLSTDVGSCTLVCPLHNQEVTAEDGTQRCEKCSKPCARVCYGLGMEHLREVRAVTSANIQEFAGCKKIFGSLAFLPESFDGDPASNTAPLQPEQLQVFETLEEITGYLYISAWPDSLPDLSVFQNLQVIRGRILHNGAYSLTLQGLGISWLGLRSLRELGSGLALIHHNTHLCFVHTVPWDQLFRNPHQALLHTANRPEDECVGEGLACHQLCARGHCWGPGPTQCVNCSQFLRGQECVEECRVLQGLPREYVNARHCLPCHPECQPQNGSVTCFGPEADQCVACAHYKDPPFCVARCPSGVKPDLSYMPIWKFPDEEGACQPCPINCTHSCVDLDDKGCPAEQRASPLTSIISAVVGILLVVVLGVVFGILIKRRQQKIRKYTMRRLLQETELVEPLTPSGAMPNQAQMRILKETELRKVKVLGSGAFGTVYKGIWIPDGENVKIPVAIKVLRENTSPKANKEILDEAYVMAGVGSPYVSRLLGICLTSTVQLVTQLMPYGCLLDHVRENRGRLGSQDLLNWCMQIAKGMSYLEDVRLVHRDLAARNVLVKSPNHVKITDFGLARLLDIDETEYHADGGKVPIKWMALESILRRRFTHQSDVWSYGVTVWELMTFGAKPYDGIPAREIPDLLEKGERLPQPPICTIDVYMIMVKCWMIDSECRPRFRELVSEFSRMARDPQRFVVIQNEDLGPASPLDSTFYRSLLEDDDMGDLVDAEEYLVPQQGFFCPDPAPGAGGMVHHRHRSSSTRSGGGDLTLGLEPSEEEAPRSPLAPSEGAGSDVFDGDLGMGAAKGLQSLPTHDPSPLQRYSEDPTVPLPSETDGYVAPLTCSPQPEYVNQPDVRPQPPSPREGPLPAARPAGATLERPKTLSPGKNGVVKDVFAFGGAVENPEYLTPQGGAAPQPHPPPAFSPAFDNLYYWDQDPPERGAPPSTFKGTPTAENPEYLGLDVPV
Summary of the method: as §1

TIE2/TEK = TIE2/TEK (Homo sapiens (Human), UniProt Q02763); experiment: Reaction Biology HotSpot kinase assay; assay type: biochemical; details: 500 nM compound; for inhibition at 0.5 µM: read-out: Percentage kinase inhibition TIE2/TEK
Summary of the method: as §1

ALK = ALK (Homo sapiens (Human), UniProt Q9UM73); experiment: Reaction Biology HotSpot kinase assay; assay type: biochemical; details: 500 nM compound; for inhibition at 0.5 µM: read-out: Percentage kinase inhibition ALK
Summary of the method: as §1

EGFR = EGFR (Homo sapiens (Human), UniProt P00533); experiment: Reaction Biology HotSpot kinase assay; assay type: biochemical; details: 500 nM compound; for inhibition at 0.5 µM: read-out: Percentage kinase inhibition EGFR
Summary of the method: as §1

TRKB = TRKB (Homo sapiens (Human), UniProt Q16620); experiment: Reaction Biology HotSpot kinase assay; assay type: biochemical; details: 500 nM compound; for inhibition at 0.5 µM: read-out: Percentage kinase inhibition TRKB
Summary of the method: as §1

FGR = FGR (Homo sapiens (Human), UniProt P09769); experiment: Reaction Biology HotSpot kinase assay; assay type: biochemical; details: 500 nM compound; for inhibition at 0.5 µM: read-out: Percentage kinase inhibition FGR
Summary of the method: as §1

c-Met = c-Met (Homo sapiens (Human), UniProt P08581); experiment: Reaction Biology HotSpot kinase assay; assay type: biochemical; details: 500 nM compound; for inhibition at 0.5 µM: read-out: Percentage kinase inhibition c-Met
Summary of the method: as §1

MOLM14 = experiment: IC50 determination (proliferation assay, CellTiter-Blue); assay type: cell-based
Method: Cell lines were seeded into 96-well plates the afternoon prior to treatment. Approximately 18 hours later, compounds were diluted in dimethyl sulfoxide (DMSO) and added to cells. Plates were incubated for 72 hours and cells viability determined with CellTiter-Blue Cell Viability Assay (Promega, Madison, WI). Plates were read after 4 additional hours of incubation at 37° C. using plate reader (Bio-Tek, Winooski. VT). Data was analyzed and graphed using GraphPad Prism Software (Graphpad. La Jolla, CA). […]

SMILES: Cc1ccc(C(=O)Nc2ccc(CN3CCN(C)CC3)c(C(F)(F)F)c2)cc1C#Cc1cnc(N)c2ncccc12 [HSN356, 3-((8-amino-1,7-naphthyridin-5-yl)ethynyl)-4-methyl-N-(4-((4-methylpiperazin-1-yl)methyl)-3-(trifluoromethyl)phenyl)benzamide]
inhibition at 0.5 µM (PKCa): 0%
inhibition at 0.5 µM (FLT1/VEGFR1): 94%
inhibition at 0.5 µM (FGFR1): 96%
inhibition at 0.5 µM (BRAF): 100%
inhibition at 0.5 µM (AXL): 4%
inhibition at 0.5 µM (FLT4/VEGFR3): 94%
inhibition at 0.5 µM (YES/YES1): 100%
inhibition at 0.5 µM (BTK): 65%
inhibition at 0.5 µM (KDR/VEGFR2): 97%
inhibition at 0.5 µM (EPHB2): 100%
inhibition at 0.5 µM (PDGFRa): 92%
inhibition at 0.5 µM (ROS/ROS1): 0%
inhibition at 0.5 µM (c-MER): 0%
inhibition at 0.5 µM (AKT1): 0%
% inhibition of FLT3 activity (FLT3): 99%
inhibition at 0.5 µM (FLT3): 98%
inhibition at 0.5 µM (EPHA5): 96%
inhibition at 0.5 µM (ERBB2/HER2): 64%
inhibition at 0.5 µM (TIE2/TEK): 100%
inhibition at 0.5 µM (ALK): 0%
inhibition at 0.5 µM (EGFR): 59%
inhibition at 0.5 µM (TRKB): 75%
inhibition at 0.5 µM (FGR): 99%
inhibition at 0.5 µM (c-Met): 15%
proliferation inhibition in words, MOLM-14 (MOLM14): potent proliferation inhibitors
IC50 (MOLM14; Homo sapiens, MOLM-14): 0.62 ± 0.02 nM

inhibition at 0.5 µM (PKCa): 6%
inhibition at 0.5 µM (FLT1/VEGFR1): 3%
inhibition at 0.5 µM (FGFR1): 0%
inhibition at 0.5 µM (BRAF): 64%
inhibition at 0.5 µM (AXL): 0%
inhibition at 0.5 µM (FLT4/VEGFR3): 6%
inhibition at 0.5 µM (YES/YES1): 0%
inhibition at 0.5 µM (BTK): 0%
inhibition at 0.5 µM (KDR/VEGFR2): 15%
inhibition at 0.5 µM (EPHB2): 3%
inhibition at 0.5 µM (PDGFRa): 30%
inhibition at 0.5 µM (ROS/ROS1): 0%
inhibition at 0.5 µM (c-MER): 3%
inhibition at 0.5 µM (AKT1): 0%
inhibition at 0.5 µM (FLT3; 500 nM compound): 28%
inhibition at 0.5 µM (EPHA5): 0%
inhibition at 0.5 µM (ERBB2/HER2): 0%
inhibition at 0.5 µM (TIE2/TEK): 0%
inhibition at 0.5 µM (ALK): 1%
inhibition at 0.5 µM (EGFR): 0%
inhibition at 0.5 µM (TRKB): 0%
inhibition at 0.5 µM (FGR): 0%
inhibition at 0.5 µM (c-Met): 23%
IC50 (MOLM14; Homo sapiens, MOLM-14): 415 ± 6.9 nM
SMILES: Cc1ccc(C(=O)Nc2ccc(CN3CCN(C)CC3)c(C(F)(F)F)c2)cc1C#Cc1cc(N)nc2ccccc12 [HSN285]

Percentage kinase inhibition PKCa (PKCa): 3%
Percentage kinase inhibition FLT1/VEGFR1 (FLT1/VEGFR1): 0%
Percentage kinase inhibition FGFR1 (FGFR1): 11%
Percentage kinase inhibition BRAF (BRAF): 3%
Percentage kinase inhibition AXL (AXL): 0%
Percentage kinase inhibition FLT4/VEGFR3 (FLT4/VEGFR3): 10%
Percentage kinase inhibition YES/YES1 (YES/YES1): 13%
Percentage kinase inhibition BTK (BTK): 5%
Percentage kinase inhibition KDR/VEGFR2 (KDR/VEGFR2): 9%
Percentage kinase inhibition EPHB2 (EPHB2): 5%
Percentage kinase inhibition PDGFRa (PDGFRa): 48%
Percentage kinase inhibition ROS/ROS1 (ROS/ROS1): 15%
Percentage kinase inhibition c-MER (c-MER): 6%
Percentage kinase inhibition AKT1 (AKT1): 13%
% inhibition of FLT3 activity (FLT3; 500 nM compound): 66%
Percentage kinase inhibition EPHA5 (EPHA5): 4%
Percentage kinase inhibition ERBB2/HER2 (ERBB2/HER2): 0%
Percentage kinase inhibition TIE2/TEK (TIE2/TEK): 8%
Percentage kinase inhibition ALK (ALK): 7%
Percentage kinase inhibition EGFR (EGFR): 0%
Percentage kinase inhibition TRKB (TRKB): 40%
Percentage kinase inhibition FGR (FGR): 6%
Percentage kinase inhibition c-Met (c-Met): 4%
IC50 (MOLM14): 102 ± 11 nM
SMILES: CN(C)CC(O)CNC(=O)c1ccc(C#Cc2c(N)ncc3ccc(Cl)cc23)cc1 (centres unmarked) [HSM1702]

From patent publication US20250084039A1, “4-SUBSTITUTED AMINOISOQUINOLINE DERIVATIVES” (Purdue Research Foundation, priority 2016, published 2025)
